Measurements from patent US5422341A, “Motilin-like polypeptides with gastrointestinal motor stimulating activity” (Ohmeda Pharmaceutical Products Division Inc., priority 1993, dated 1995).
Square brackets hold non-standard residues; d marks the D form. Ends that are not written are not given here. Peptide text beside a SMILES is read from it. * marks the point of attachment. X1 = C[N+](C)(C)[C@@H](Cc1ccccc1)C(=O)*; NMeF = CN[C@@H](Cc1ccccc1)C(=O)O

Assays:
[1] = target: segments of rabbit duodenum (Oryctolagus cuniculus, UniProt G1T803); assay: Rabbit duodenal smooth muscle strip tissue bath assay; format: cell-based; conditions: negative logarithm of the dose giving 50% of the maximal response to motilin; isotonic contraction of rabbit duodenum segments
Procedure, shortened: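 Isotonic contraction of rabbit duodenal segments after 1 h equilibration and 10^-4 M acetylcholine challenge; cumulative compound curve over 10^-11 to 10^-4 M, then 10^-7 M motilin. Runs discarded if final acetylcholine response differed >5%. EC50 at 50% of maximal motilin response, reported as pEC50.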

motilin receptor = target: T1, motilin receptor (Oryctolagus cuniculus, UniProt G1T803); assay: Determination of motilin receptor binding affinity (displacement of [125I-Tyr7, Nle13]motilin(porcine)); design: species or system rabbit; conditions: for IC50: negative logarithm of the concentration displacing 50% of [125I-Tyr7, Nle13]motilin(porcine) from rabbit antral smooth muscle membranes, read-out: pIC50 (converted)
T1 construct: from tissue; host or cells: rabbit antral smooth muscle membranes
Experimental: The motilin receptor binding affinity of the peptides of this invention was determined by using the general procedure of Bormans, Peelers and Vantrappen, Regul. […] Fitting was performed using the iterative least-squares procedure of the SAS-software package (SAS Institute, Inc., Cary, N.C., USA).

[2] = format: in vitro ADME, hog; conditions: pH 7
Experimental: Like most small linear polypeptides, motilin is believed to be metabolized lo by the brush border cells of the kidney. Therefore, kidney homogenate was chosen as the model system for assessing the relative in vivo biostability of the peptides of this invention. All peptides to be studied were incubated in hog kidney (Pel Freeze, Inc., Rogers, Ark.) (2% w/v; final volume=4 ml; buffer=HEPES pH 7.0) at 25° C. Both initial substrate concentration and internal standard (Fmoc-Gly) concentration were 0.5 mg/ml. In order to determine suitable incubation times and sampling intervals, two experiments were conducted with each polypeptide. The first run served as a rough estimate of peptide stability. All sampling was performed in duplicate. Sample volume was 180 μl.
Sample clean-up was performed by addition of 20 μl of 100% TCA (final volume=200 μl; final TCA concentration=10%). The sample was vortexed for from 5 to 10 seconds to ensure equilibration, then centrifuged to spin out the precipitated proteins. Analysis was carried out on a Waters HPLC system with a WISP autoinjector, a 5μ Vydac C-18 analytical column, and a Waters 481 UV detector set at 214 nm. Injection volume was 80 μl. Initial solvent conditions were […] in Milli-Q water with a 35 minute gradient running to 63% acetonitrile/37% (0.1%) TFA at 1 ml/min.
Polypeptide substrate and metabolite peaks were ratioed to the internal standard and the duplicate sample ratios were averaged. The avenge ratio for the peptide substrate was expressed as a percentage and plotted versus time. First-order kinetics was assumed for data treatment. The rate of disappearance of the substrate was calculated using the Enzfitter program (Biosoft). Relative half-lives were determined from the relationship: […]

[3] = test system: canine gastrointestinal tract; assay: Contractile activity in the canine gastrointestinal tract; format: in vivo, dog; conditions: anesthetized dogs, intra-arterial injection to a duodenal segment; amount giving 50% of the calibration response to field stimulation
[4] = in vivo; cited from earlier work

Chain of segments of rabbit duodenum (G1T803 1-400): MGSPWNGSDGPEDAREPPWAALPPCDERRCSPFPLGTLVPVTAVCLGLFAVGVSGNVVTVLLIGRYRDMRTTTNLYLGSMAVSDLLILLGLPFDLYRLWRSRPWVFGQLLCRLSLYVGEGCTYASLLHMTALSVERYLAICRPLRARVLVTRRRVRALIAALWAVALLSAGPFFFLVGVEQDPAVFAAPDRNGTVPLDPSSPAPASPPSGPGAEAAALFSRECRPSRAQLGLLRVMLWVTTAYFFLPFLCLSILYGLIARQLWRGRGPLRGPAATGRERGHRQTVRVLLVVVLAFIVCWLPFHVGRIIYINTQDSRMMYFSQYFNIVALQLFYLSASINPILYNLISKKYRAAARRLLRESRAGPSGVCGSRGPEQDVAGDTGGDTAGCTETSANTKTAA
T1 sequence (G1T803 1-400): as above

Molecule	pEC50 [1]	IC50 (motilin receptor) [nM]	T1/2 [2]	ED50 [3] [nmol]	half-life (t1/2) [4] [min]	Kd (motilin receptor) [nM]
CC[C@H](C)[C@H](NC(=O)[C@@H]1CCCN1C(=O)[C@@H](NC(=O)[C@H](Cc1ccccc1)[N+](C)(C)C)C(C)C)C(=O)N[C@@H](Cc1ccccc1)C(=O)N[C@H](C(=O)N[C@@H](Cc1ccc(O)cc1)C(=O)NCC(=O)N[C@@H](CCC(=O)O)C(=O)N[C@@H](CC(C)C)C(=O)N[C@@H](C)C(=O)N[C@H](CCCNC(=N)N)C(=O)N[C@@H](CC(C)C)C(=O)N[C@@H](CCCCN)C(N)=O)[C@@H](C)O (X1-VPIFTYGELA[dR]LK-NH2)	7.64	1.29	125	0.12	–	–
FVPIFTYGELQRLQ [[Leu^13]pMOT(1-14), reference compound]	7.55	4.37	7.5	20.4	–	–
CC[C@H](C)[C@H](NC(=O)[C@@H]1CCCN1C(=O)[C@@H](NC(=O)[C@H](Cc1ccccc1)NC)C(C)C)C(=O)N[C@@H](Cc1ccccc1)C(=O)N[C@H](C(=O)N[C@@H](Cc1ccc(O)cc1)C(=O)NCC(=O)N[C@@H](CCC(=O)O)C(=O)N[C@@H](CC(C)C)C(=O)N[C@@H](C)C(=O)N[C@H](CCCNC(=N)N)C(=O)N[C@@H](CC(C)C)C(=O)N[C@H](CCC(N)=O)C(N)=O)[C@@H](C)O (H-[NMeF]VPIFTYGELA[dR]L[dQ]-NH2)	7.97	0.851	32.6	0.40	–	–
CC[C@H](C)[C@H](NC(=O)[C@@H]1CCCN1C(=O)[C@@H](NC(=O)[C@@H](N)Cc1ccccc1)C(C)C)C(=O)N[C@@H](Cc1ccccc1)C(=O)N[C@H](C(=O)N[C@@H](Cc1ccc(O)cc1)C(=O)NCC(=O)N[C@@H](CCC(=O)O)C(=O)N[C@@H](CC(C)C)C(=O)N[C@@H](CCC(N)=O)C(=O)N[C@@H](CCCNC(=N)N)C(=O)N[C@@H](CCSC)C(=O)N[C@@H](CCC(N)=O)C(=O)N[C@@H](CCC(=O)O)C(=O)N[C@@H](CCCCN)C(=O)N[C@@H](CCC(=O)O)C(=O)N[C@@H](CCCNC(=N)N)C(=O)N[C@@H](CC(N)=O)C(=O)N[C@@H](CCCCN)C(=O)NCC(=O)N[C@@H](CCC(N)=O)C(=O)O)[C@@H](C)O [motilin]	–	–	–	–	4.5	0.759
CC[C@H](C)[C@H](NC(=O)[C@@H]1CCCN1C(=O)[C@@H](NC(=O)[C@H](Cc1ccccc1)[N+](C)(C)C)C(C)C)C(=O)N[C@@H](Cc1ccccc1)C(=O)N[C@H](C(=O)N[C@@H](Cc1ccc(O)cc1)C(=O)NCC(=O)N[C@@H](CCC(=O)O)C(=O)N[C@@H](CC(C)C)C(=O)N[C@@H](CCC(N)=O)C(=O)N[C@H](CCCNC(=N)N)C(=O)N[C@@H](CC(C)C)C(=O)N[C@@H](CCCCN)C(N)=O)[C@@H](C)O (X1-VPIFTYGELQ[dR]LK-NH2)	7.60	1.17	162	0.15	–	–
